Among the data in ChEMBL document CHEMBL6083280, “De Novo Discovery of a Noncovalent Cell-Penetrating Bicyclic Peptide Inhibitor Targeting SARS-CoV-2 Main Protease” (J Med Chem, 2024) are IC50, EC50 and Activity values, retold here.

pEC50, pIC50: −log10 of the molar value. Calls of active or inactive are those of the source. No cut-off for these calls is given here. Positions of bridges follow the written chain, without caps; N, C: chain ends. Residues, ends and D or L forms follow the SMILES beside them. Where only a bound is given, the exact number is not on record here.

Assay [1] concerns the target Replicase polyprotein 1ab (Severe acute respiratory syndrome coronavirus 2, UniProt P0DTD1). Nature of the assay: Inhibition of N-terminal his-tagged SARS-CoV-2 Main protease expressed in Escherichia coli BL21 (DE3) using Dabcyl-TSAVLWSGFRICMK-Edans as substrate preincubated for 10 mins by microplate reader analysis.
The subject of assay [2] is SARS-CoV-2. Nature of the assay: Antiviral activity against SARS-CoV-2 infected in human Caco-2 cells assessed as inhibition of viral infection preincubated for 1 hr followed by viral infection measured after 48 hrs by CQ1 confocal quantitative image cytometer analysis. In kind it is functional, organism-based. Particulars: for pEC50: Severe acute respiratory syndrome coronavirus 2, Caco-2; for Activity: Severe acute respiratory syndrome coronavirus 2, time 49.0 hrs.

As a reminder, the pIC50 is the negative decadic logarithm of the IC50, by convention in mol/L. High values mean a low IC50, low ones a high IC50. The molecule `CC(C)C[C@@H]1NC(=O)[C@H](Cc2ccccc2)NC(=O)[C@@H]2CCCN2C(=O)[C@H]([C@@H](C)O)NC(=O)[C@H]([C@@H](C)O)NC(=O)[C@H]([C@@H](C)O)NC(=O)[C@H](Cc2c[nH]cn2)NC(=O)[C@H](Cc2ccccc2)NC(=O)[C@H]([C@@H](C)O)NC(=O)[C@H](C(C)C)NC(=O)[C@@H](Cc2ccc(O)cc2)NC(=O)CSC[C@@H](C(=O)NCC(N)=O)NC(=O)[C@H](C)NC(=O)[C@@H]2CCCN2C1=O` gave a pIC50 in assay [1] of 5.71.

`CC(C)C[C@@H]1NC(=O)[C@H](Cc2ccccc2)NC(=O)[C@@H]2CCCN2C(=O)[C@H]([C@@H](C)O)NC(=O)[C@H]([C@@H](C)O)NC(=O)[C@H]([C@@H](C)O)NC(=O)[C@H](Cc2c[nH]cn2)NC(=O)[C@H](C)NC(=O)[C@H]([C@@H](C)O)NC(=O)[C@H](C(C)C)NC(=O)[C@@H](Cc2ccc(O)cc2)NC(=O)CSC[C@@H](C(=O)NCC(N)=O)NC(=O)[C@@H]2CCCN2C(=O)[C@@H]2CCCN2C1=O` showed a pIC50 in assay [1] of under 5.00.

In turn, `CC(C)C[C@@H]1NC(=O)[C@H](Cc2ccccc2)NC(=O)[C@@H]2CCCN2C(=O)[C@H]([C@@H](C)O)NC(=O)[C@H]([C@@H](C)O)NC(=O)[C@H]([C@@H](C)O)NC(=O)[C@H](Cc2c[nH]cn2)NC(=O)[C@H](Cc2ccccc2)NC(=O)[C@H]([C@@H](C)O)NC(=O)[C@H](C)NC(=O)[C@@H](Cc2ccc(O)cc2)NC(=O)CSC[C@@H](C(=O)NCC(N)=O)NC(=O)[C@@H]2CCCN2C(=O)[C@@H]2CCCN2C1=O` had a pIC50 in assay [1] of under 5.00.

In the case of `CC(C)C[C@@H]1NC(=O)[C@H](Cc2ccccc2)NC(=O)[C@@H]2CCCN2C(=O)[C@H]([C@@H](C)O)NC(=O)[C@H]([C@@H](C)O)NC(=O)[C@H](C)NC(=O)[C@H](Cc2c[nH]cn2)NC(=O)[C@H](Cc2ccccc2)NC(=O)[C@H]([C@@H](C)O)NC(=O)[C@H](C(C)C)NC(=O)[C@@H](Cc2ccc(O)cc2)NC(=O)CSC[C@@H](C(=O)NCC(N)=O)NC(=O)[C@@H]2CCCN2C(=O)[C@@H]2CCCN2C1=O`, in assay [1], the pIC50 is 6.29.

For `CC(C)C[C@@H]1NC(=O)[C@H](Cc2ccccc2)NC(=O)[C@H](C)NC(=O)[C@H]([C@@H](C)O)NC(=O)[C@H]([C@@H](C)O)NC(=O)[C@H]([C@@H](C)O)NC(=O)[C@H](Cc2c[nH]cn2)NC(=O)[C@H](Cc2ccccc2)NC(=O)[C@H]([C@@H](C)O)NC(=O)[C@H](C(C)C)NC(=O)[C@@H](Cc2ccc(O)cc2)NC(=O)CSC[C@@H](C(=O)NCC(N)=O)NC(=O)[C@@H]2CCCN2C(=O)[C@@H]2CCCN2C1=O`, the pIC50 in assay [1] was 6.41. This pIC50 and that of the molecule before are within 0.2 log units of each other.

What is called pEC50 is −log10 of the EC50, conventionally taken in molar units. Consider `CC(C)[C@@H]1NC(=O)[C@@H](Cc2ccc(O)cc2)NC(=O)CC[C@@H](C(N)=O)NC(=O)[C@@H]2CCCN2C(=O)[C@@H]2CCCN2C(=O)[C@@H]2CSc3c(F)c(F)c(c(F)c3F)SC[C@H](NC1=O)C(=O)N[C@@H](Cc1ccccc1)C(=O)N[C@@H](Cc1c[nH]cn1)C(=O)N[C@@H]([C@@H](C)O)C(=O)N[C@@H]([C@@H](C)O)C(=O)N[C@@H]([C@@H](C)O)C(=O)N1CCC[C@H]1C(=O)N[C@@H](Cc1ccccc1)C(=O)N2`, for which the pEC50 in assay [2] was under 4.00. This molecule gave a negative-log IC50 (pIC50) in assay [1] of 4.78.

Consider `CC(C)C[C@@H]1NC(=O)[C@H](C)NC(=O)[C@@H]2CCCN2C(=O)[C@H]([C@@H](C)O)NC(=O)[C@H]([C@@H](C)O)NC(=O)[C@H]([C@@H](C)O)NC(=O)[C@H](Cc2c[nH]cn2)NC(=O)[C@H](Cc2ccccc2)NC(=O)[C@H]([C@@H](C)O)NC(=O)[C@H](C(C)C)NC(=O)[C@@H](Cc2ccc(O)cc2)NC(=O)CSC[C@@H](C(=O)NCC(N)=O)NC(=O)[C@@H]2CCCN2C(=O)[C@@H]2CCCN2C1=O`, for which the pIC50 in assay [1] is 5.24.

`CC(C)C[C@@H]1NC(=O)[C@H](Cc2ccccc2)NC(=O)[C@@H]2CCCN2C(=O)[C@H]([C@@H](C)O)NC(=O)[C@H]([C@@H](C)O)NC(=O)[C@H]([C@@H](C)O)NC(=O)[C@H](Cc2c[nH]cn2)NC(=O)[C@H](Cc2ccccc2)NC(=O)[C@H](C)NC(=O)[C@H](C(C)C)NC(=O)[C@@H](Cc2ccc(O)cc2)NC(=O)CSC[C@@H](C(=O)NCC(N)=O)NC(=O)[C@@H]2CCCN2C(=O)[C@@H]2CCCN2C1=O` gave a pIC50 in assay [1] of 5.78.

In assay [1], `CC(C)C[C@@H]1NC(=O)[C@H](Cc2ccccc2)NC(=O)[C@@H]2CCCN2C(=O)[C@H]([C@@H](C)O)NC(=O)[C@H]([C@@H](C)O)NC(=O)[C@H]([C@@H](C)O)NC(=O)[C@H](C)NC(=O)[C@H](Cc2ccccc2)NC(=O)[C@H]([C@@H](C)O)NC(=O)[C@H](C(C)C)NC(=O)[C@@H](Cc2ccc(O)cc2)NC(=O)CSC[C@@H](C(=O)NCC(N)=O)NC(=O)[C@@H]2CCCN2C(=O)[C@@H]2CCCN2C1=O` showed a pIC50 of under 5.00.

As to `CC[C@H](C)[C@@H]1NC(=O)[C@H](Cc2c[nH]cn2)NC(=O)[C@H](CO)NC(=O)[C@H](Cc2ccccc2)NC(=O)[C@H](Cc2ccc(O)cc2)NC(=O)[C@H](CCC(N)=O)NC(=O)[C@H]([C@@H](C)O)NC(=O)[C@H](Cc2ccc(O)cc2)NC(=O)CSC[C@@H](C(=O)N[C@@H](CO)C(=O)N[C@@H](CO)C(=O)N[C@@H](CCCNC(=N)N)C(=O)N[C@@H](CO)C(=O)NCC(N)=O)NC1=O` ({CH2CO}-YTQYFSHICSSRSG-NH2; thioether N-9), the negative logarithm of the IC50 (pIC50) in assay [1] is under 4.00.

Regarding `CC(C)C[C@@H]1NC(=O)[C@H](Cc2ccccc2)NC(=O)[C@@H]2CCCN2C(=O)[C@H]([C@@H](C)O)NC(=O)[C@H]([C@@H](C)O)NC(=O)[C@H]([C@@H](C)O)NC(=O)[C@H](Cc2c[nH]cn2)NC(=O)[C@H](Cc2cccc(F)c2)NC(=O)[C@H]([C@@H](C)O)NC(=O)[C@H](C(C)C)NC(=O)[C@@H](Cc2ccc(O)cc2)NC(=O)CSC[C@@H](C(=O)NCC(N)=O)NC(=O)[C@@H]2CCCN2C(=O)[C@@H]2CCCN2C1=O`, the pEC50 in assay [2] was under 4.00. The molecule further showed a negative-log IC50 (pIC50) in assay [1] of 6.60.

In assay [1], `CC(C)C[C@@H]1NC(=O)[C@H](Cc2ccccc2)NC(=O)[C@@H]2CCCN2C(=O)[C@H](C)NC(=O)[C@H]([C@@H](C)O)NC(=O)[C@H]([C@@H](C)O)NC(=O)[C@H](Cc2c[nH]cn2)NC(=O)[C@H](Cc2ccccc2)NC(=O)[C@H]([C@@H](C)O)NC(=O)[C@H](C(C)C)NC(=O)[C@@H](Cc2ccc(O)cc2)NC(=O)CSC[C@@H](C(=O)NCC(N)=O)NC(=O)[C@@H]2CCCN2C(=O)[C@@H]2CCCN2C1=O` gave a negative-log IC50 (pIC50) of 6.66.

As to `CC(C)C[C@@H]1NC(=O)[C@H](Cc2ccccc2)NC(=O)[C@@H]2CCCN2C(=O)[C@H]([C@@H](C)O)NC(=O)[C@H]([C@@H](C)O)NC(=O)[C@H]([C@@H](C)O)NC(=O)[C@H](Cc2c[nH]cn2)NC(=O)[C@H](Cc2ccccc2)NC(=O)[C@H]([C@@H](C)O)NC(=O)[C@H](C(C)C)NC(=O)[C@@H](Cc2ccc(O)cc2)NC(=O)CC[C@@H](C(=O)NCC(N)=O)NC(=O)[C@@H]2CCCN2C(=O)[C@@H]2CCCN2C1=O`, the pEC50 in assay [2] was under 4.00. Also, in assay [1], the pIC50 is 6.82.

On to `CC[C@H](C)[C@@H]1NC(=O)[C@@H](Cc2ccc(O)cc2)NC(=O)CSC[C@@H](C(N)=O)NC(=O)[C@H](C(C)C)NC(=O)[C@H](CC(C)C)NC(=O)[C@@H]2CCCN2C(=O)[C@H](Cc2ccccc2)NC(=O)[C@H]([C@@H](C)O)NC(=O)[C@H](CCC(N)=O)NC1=O`, for which, in assay [2], the result was inactive. The pIC50 in assay [1] was 5.85.

On to `CC[C@H](C)[C@@H]1NC(=O)[C@@H](Cc2ccc(O)cc2)NC(=O)CSC[C@@H](C(N)=O)NC(=O)[C@H]([C@@H](C)CC)NC(=O)[C@@H]2CCCN2C(=O)[C@@H]2CCCN2C(=O)[C@H](Cc2ccccc2)NC(=O)[C@H](CO)NC(=O)[C@H](CCC(N)=O)NC1=O`, for which, in assay [2], the result was inactive. This molecule also had a pIC50 in assay [1] of 5.85.

As for `CC(C)[C@@H]1NC(=O)[C@@H](Cc2ccc(O)cc2)NC(=O)CSC[C@@H](C(=O)NCC(N)=O)NC(=O)[C@@H]2CCCN2C(=O)[C@@H]2CCCN2C(=O)[C@H](C)NC(=O)[C@H](Cc2ccccc2)NC(=O)[C@@H]2CCCN2C(=O)[C@H]([C@@H](C)O)NC(=O)[C@H]([C@@H](C)O)NC(=O)[C@H]([C@@H](C)O)NC(=O)[C@H](Cc2c[nH]cn2)NC(=O)[C@H](Cc2ccccc2)NC(=O)[C@H]([C@@H](C)O)NC1=O`, in assay [1], the pIC50 is 6.43.

As for `CC(C)[C@@H]1NC(=O)[C@@H](Cc2ccc(O)cc2)NC(=O)CC[C@@H](C(=O)NCC(N)=O)NC(=O)[C@@H]2CCCN2C(=O)[C@@H]2CCCN2C(=O)[C@@H]2CSCc3cccc(c3)CSC[C@H](NC1=O)C(=O)N[C@@H](Cc1ccccc1)C(=O)N[C@@H](Cc1c[nH]cn1)C(=O)N[C@@H]([C@@H](C)O)C(=O)N[C@@H]([C@@H](C)O)C(=O)N[C@@H]([C@@H](C)O)C(=O)N1CCC[C@H]1C(=O)N[C@@H](Cc1ccccc1)C(=O)N2`, in assay [2], the negative logarithm of the EC50 (pEC50) is under 4.00. In assay [1], this molecule had a pIC50 of 6.36.

Turning to `CC[C@H](C)[C@@H]1NC(=O)[C@@H](Cc2ccc(O)cc2)NC(=O)CSC[C@@H](C(N)=O)NC(=O)[C@H](C(C)C)NC(=O)[C@H](CC(C)C)NC(=O)[C@@H]2CCCN2C(=O)[C@H](Cc2ccccc2)NC(=O)[C@H]([C@@H](C)O)NC(=O)[C@H](Cc2c[nH]cn2)NC1=O`, the result in assay [2] was inactive. In assay [1], this molecule had a pIC50 of 5.85.

On to `CC(C)C[C@@H]1NC(=O)[C@H](Cc2ccccc2)NC(=O)[C@@H]2CCCN2C(=O)[C@H]([C@@H](C)O)NC(=O)[C@H]([C@@H](C)O)NC(=O)[C@H]([C@@H](C)O)NC(=O)[C@H](Cc2c[nH]cn2)NC(=O)[C@H](Cc2ccccc2)NC(=O)[C@H]([C@@H](C)O)NC(=O)[C@H](C(C)C)NC(=O)[C@@H](Cc2ccc(O)cc2)NC(=O)CSC[C@@H](C(=O)NCC(N)=O)NC(=O)[C@@H]2CCCN2C(=O)[C@H](C)NC1=O`, for which the pIC50 in assay [1] is 6.21.

The molecule `CC(C)C[C@@H]1NC(=O)[C@H](Cc2ccccc2)NC(=O)[C@@H]2CCCN2C(=O)[C@H]([C@@H](C)O)NC(=O)[C@H](C)NC(=O)[C@H]([C@@H](C)O)NC(=O)[C@H](Cc2c[nH]cn2)NC(=O)[C@H](Cc2ccccc2)NC(=O)[C@H]([C@@H](C)O)NC(=O)[C@H](C(C)C)NC(=O)[C@@H](Cc2ccc(O)cc2)NC(=O)CSC[C@@H](C(=O)NCC(N)=O)NC(=O)[C@@H]2CCCN2C(=O)[C@@H]2CCCN2C1=O` gave a pIC50 in assay [1] of 6.70.
